The source of these data is patent publication US9708244B2, “Coloring material and method for producing the same” (DAI NIPPON PRINTING CO., LTD., priority 2012, dated 2017).

Common to all, as to type: physicochemical
A short description of data set [1]: Evaluation of thermal decomposition temperature (TG-DTA). The conditions noted are these: heating rate 5° C./min to 800° C., extrapolated temperature of TG curve peak. As for the experimental part:
As a reference, alumina was put in a quarts pan. Using horizontal differential thermogravimetric-differential thermal analyzer (TG-DTA) TG8120 (manufactured by Rigaku Corporation), they were measured at a heating rate of 5° C./min to 800° C. The extrapolated temperature of the peak of the thus-obtained TG curve was used as a decomposition point, and the temperature at the decomposition point was used as a thermal decomposition temperature. The thermal decomposition temperature can be used as an indicator of heat resistance.

Data set [2] in a line: Evaluation of weight reduction rate (TG-DTA, held at 230° C.). The conditions noted are these: heated to 230° C. at 20° C./min, kept 60 minutes. As for the experimental part: As a reference, alumina was put in a quarts pan. Using differential thermogravimetric analyzer (TG-DTA) TG8120 (manufactured by Rigaku Corporation), they were heated to 230° C. at a heating rate of 20° C./min. From the time when they reached 230° C., they were kept at the same temperature for 60 minutes and then measured for the weight reduction rate. The weight reduction rate is calculated by the following formula and can be used as an indicator of heat resistance. Weight reduction rate=(“weight before heating”−“weight after heating”)/“weight before heating”×100(%) <Evaluation of Dyeing Property> (1) Fabric Dyeing

The nature of data set [3]: Evaluation of color change in color materials (absorption spectrum in methanol). The conditions noted are these: 10 mg in 100 mL methanol, diluted 20-fold, 1 cm cell, FIG. 1. As for the experimental part: First, 10 mg of each of the color materials A and C obtained in Examples 1 and 3 was dissolved in 100 mL of methanol and diluted 20-fold, thereby obtaining a measurement solution. The absorption spectrum of the solution was measured by using a 1 cm quarts cell in spectrophotometer U-3500 manufactured by Hitachi, Ltd. Next, 10 mg of BB7 (monomer) was dissolved in 100 mL of methanol and diluted 20-fold, thereby obtaining a measurement solution as a control product. The absorption spectrum of the solution was measured by the same method as above.

Structures are written as SMILES.

In the case of `CCN(CC)c1ccc(C(=C2C=CC(=[N+](CC)CC)C=C2)c2ccc(NCc3ccc(CNc4ccc(C(=C5C=CC(=[N+](CC)CC)C=C5)c5ccc(N(CC)CC)cc5)c5ccccc45)cc3)c3ccccc23)cc1` [Color material B], the Thermal decomposition temperature in data set [1] is 255 °C. In addition, in data set [2], the “Weight reduction rate (230° C. for 1 hr)” value is −29.1%.

As for `CCNc1ccc(C(=C2C=CC(=[N+](CC)CC)C=C2)c2ccc(N(CC)CC)cc2)c2ccccc12.Cc1ccc(S(=O)(=O)[O-])cc1` [Color material E], the Thermal decomposition temperature in data set [1] is 245 °C. In addition, the “Weight reduction rate (230° C. for 1 hr)” value in data set [2] is reported as −38.3%.

Turning to `CCNc1ccc(C(=C2C=CC(=[N+](CC)CC)C=C2)c2ccc(N(CC)CC)cc2)c2ccccc12.[Cl-]` [Color material D, Basic Blue 7 (CI-42595)], in data set [1], the Thermal decomposition temperature was 218 °C. In addition, in data set [2], the “Weight reduction rate (230° C. for 1 hr)” value is given as −40.2%.

For `CCNc1ccc(C(=C2C=CC(=[N+](CC)CC)C=C2)c2ccc(N(CC)CC)cc2)c2ccccc12` [Color material F], the Thermal decomposition temperature in data set [1] is 236 °C. Besides, the “Weight reduction rate (230° C. for 1 hr)” value in data set [2] is given as −33.8%.

As for `CCN(CC)c1ccc(C(=C2C=CC(=[N+](CC)CC)C=C2)c2ccc(NCc3ccc(CNc4ccc(C(=C5C=CC(=[N+](CC)CC)C=C5)c5ccc(N(CC)CC)cc5)c5ccccc45)cc3)c3ccccc23)cc1.[Cl-].[Cl-]` [Color material A], the Thermal decomposition temperature in data set [1] was 247 °C. Besides, the “Weight reduction rate (230° C. for 1 hr)” value in data set [2] is recorded as −28.9%. In addition, in data set [3], the “Color change versus BB7 (absorption spectrum peak form)” value is reported as “almost no change in color”.
